Where a name gives a salt, the structure may show the parent alone.
What was measured:
Type in all cases: biochemical
human FGFR1 = molecular target: T1, human FGFR1 (Homo sapiens, UniProt P11362); assay: 33P isotope-labeled kinase activity test (Reaction Biology Corp), wild-type FGFR1; settings: 33P-ATP 5 μM, substrate pEY + Mn, 120 minutes at room temperature
T1 construct: purchased Invitrogen PV3146
Experimental: (§1) The IC50 value is determined using ^33P isotope-labeled kinase activity test (Reaction Biology Corp) to evaluate the inhibitory ability of the compounds to be tested on human FGFR1 and FGFR4.
(§2) Buffer conditions: 20 mM 4-(2-hydroxyethyl)-1-piperazineethanesulfonic acid (Hepes) (pH 7.5), 10 mM MgCl2, 1 mM ethylene glycol-bis-(2-aminoethyl ether)tetraacetic acid (EGTA), 0.02% polyoxyethylene lauryl ether (Brij35), 0.02 mg/ml bovine serum albumin (BSA), 0.1 mM sodium vanadate (Na3VO4), 2 mM dithiothreitol (DTT), and 1% DMSO.
Test steps: At room temperature, the compounds to be tested are dissolved in DMSO to prepare a 10 mM solution for use. The substrate is dissolved in the newly prepared buffer, and the kinase to be tested is added and mixed well. The DMSO solution in which the compounds to be tested are dissolved is added to the above-mentioned homogeneous reaction solution using acoustic technology (Echo 550). […] After incubating for 15 minutes, ^33P-ATP (activity: 0.01 μCi/μl, with corresponding concentration being listed in table 1) is added to start the reaction. The supplier article number, batch number, and the concentration information in the reaction solution of FGFR1, FGFR4 and substrates thereof are listed in table 1. […] The kinase activity data is expressed by comparing the kinase activity of the groups containing the compounds to be tested with that of the blank group (containing only DMSO). The IC50 value is obtained by curve fitting using Prism4 software (GraphPad), and the experimental results are shown in table 2.

FGFR3 = molecular target: T2, FGFR3 (Homo sapiens, UniProt P22607); assay: 33P isotope-labeled kinase activity test (Reaction Biology Corp), wild-type FGFR3; settings: for Selectivity FGFR1/3: ratio of IC50 FGFR1 to IC50 FGFR3; for IC50: wild-type kinase, 33P-ATP 30 μM, substrate pEY + Mn, 120 minutes at room temperature
T2 construct: purchased Invitrogen PV3145

FGFR2 = molecular target: T3, FGFR2 (Homo sapiens, UniProt P21802); assay: 33P isotope-labeled kinase activity test (Reaction Biology Corp), wild-type FGFR2; settings: for Selectivity FGFR1/2: ratio of IC50 FGFR1 to IC50 FGFR2; for IC50: wild-type kinase, 33P-ATP 5 μM, substrate pEY + Mn, 120 minutes at room temperature
T3 construct: purchased Invitrogen PV3368

human FGFR4 = molecular target: T4, human FGFR4 (Homo sapiens, UniProt P22455); assay: 33P isotope-labeled kinase activity test (Reaction Biology Corp), wild-type FGFR4; settings: 33P-ATP 2.5 μM, substrate pEY + Mn, 120 minutes at room temperature
T4 construct: purchased Invitrogen P3054
Experimental: as §1, §2
Test steps: At room temperature, the compounds to be tested are dissolved in DMSO to prepare a 10 mM solution for use. The substrate is dissolved in the newly prepared buffer, and the kinase to be tested is added and mixed well. The DMSO solution in which the compounds to be tested are dissolved is added to the above-mentioned homogeneous reaction solution using acoustic technology (Echo 550). […] After incubating for 15 minutes, ^33P-ATP (activity: 0.01 μCi/μl, with corresponding concentration being listed in table 1) is added to start the reaction. The supplier article number, batch number, and the concentration information in the reaction solution of FGFR1, FGFR4 and substrates thereof are listed in table 1. After the reaction is carried out at room temperature for 120 minutes, the reaction solution is spotted on P81 ion exchange filter paper (Whatman #3698-915). After the filter paper is repeatedly washed with 0.75% phosphoric acid solution, the radioactivity of the phosphorylated substrate remaining on the filter paper is measured. The kinase activity data is expressed by comparing the kinase activity of the groups containing the compounds to be tested with that of the blank group (containing only DMSO). The IC50 value is obtained by curve fitting using Prism4 software (GraphPad), and the experimental results are shown in table 2.

T2 sequence (P22607 23-806): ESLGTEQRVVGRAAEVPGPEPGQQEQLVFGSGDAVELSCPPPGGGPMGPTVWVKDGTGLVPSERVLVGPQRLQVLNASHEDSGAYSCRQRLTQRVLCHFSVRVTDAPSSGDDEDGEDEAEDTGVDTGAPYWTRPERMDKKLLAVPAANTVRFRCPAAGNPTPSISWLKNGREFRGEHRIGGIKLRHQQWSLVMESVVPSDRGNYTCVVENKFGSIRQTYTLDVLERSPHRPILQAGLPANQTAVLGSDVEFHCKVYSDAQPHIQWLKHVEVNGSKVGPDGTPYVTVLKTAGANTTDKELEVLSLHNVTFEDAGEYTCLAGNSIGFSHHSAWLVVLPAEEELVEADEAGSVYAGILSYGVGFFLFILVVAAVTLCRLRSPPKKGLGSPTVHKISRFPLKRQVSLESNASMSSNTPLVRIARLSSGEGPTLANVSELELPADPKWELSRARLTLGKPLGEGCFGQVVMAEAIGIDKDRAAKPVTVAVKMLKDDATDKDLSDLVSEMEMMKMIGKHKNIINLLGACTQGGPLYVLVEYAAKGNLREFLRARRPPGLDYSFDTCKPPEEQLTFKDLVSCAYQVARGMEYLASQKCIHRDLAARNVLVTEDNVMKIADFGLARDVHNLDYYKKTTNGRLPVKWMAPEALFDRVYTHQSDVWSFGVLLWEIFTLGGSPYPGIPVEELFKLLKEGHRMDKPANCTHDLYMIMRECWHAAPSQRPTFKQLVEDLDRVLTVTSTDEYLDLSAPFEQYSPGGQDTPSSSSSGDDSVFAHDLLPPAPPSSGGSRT
T1 sequence (P11362 22-822): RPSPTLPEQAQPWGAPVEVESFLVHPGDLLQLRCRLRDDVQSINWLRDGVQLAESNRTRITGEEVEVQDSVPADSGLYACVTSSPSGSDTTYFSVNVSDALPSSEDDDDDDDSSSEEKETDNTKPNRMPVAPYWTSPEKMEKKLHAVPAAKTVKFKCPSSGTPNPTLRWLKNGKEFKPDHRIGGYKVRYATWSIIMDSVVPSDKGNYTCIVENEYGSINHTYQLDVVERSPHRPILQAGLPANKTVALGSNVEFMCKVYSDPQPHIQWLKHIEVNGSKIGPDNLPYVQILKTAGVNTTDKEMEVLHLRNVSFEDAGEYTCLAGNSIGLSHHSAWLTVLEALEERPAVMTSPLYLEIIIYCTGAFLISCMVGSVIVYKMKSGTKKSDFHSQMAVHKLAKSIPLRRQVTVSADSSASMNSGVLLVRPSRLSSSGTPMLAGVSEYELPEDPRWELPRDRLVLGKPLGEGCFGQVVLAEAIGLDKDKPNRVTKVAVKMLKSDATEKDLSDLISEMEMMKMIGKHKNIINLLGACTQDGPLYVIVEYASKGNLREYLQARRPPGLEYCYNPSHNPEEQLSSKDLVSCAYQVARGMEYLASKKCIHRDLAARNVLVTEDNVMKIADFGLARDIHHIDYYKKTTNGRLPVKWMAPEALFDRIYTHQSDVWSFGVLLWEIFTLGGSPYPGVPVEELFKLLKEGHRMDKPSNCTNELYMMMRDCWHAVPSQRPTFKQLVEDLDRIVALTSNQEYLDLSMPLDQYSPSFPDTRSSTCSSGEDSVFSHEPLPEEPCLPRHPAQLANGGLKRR
T3 sequence (P21802 22-821): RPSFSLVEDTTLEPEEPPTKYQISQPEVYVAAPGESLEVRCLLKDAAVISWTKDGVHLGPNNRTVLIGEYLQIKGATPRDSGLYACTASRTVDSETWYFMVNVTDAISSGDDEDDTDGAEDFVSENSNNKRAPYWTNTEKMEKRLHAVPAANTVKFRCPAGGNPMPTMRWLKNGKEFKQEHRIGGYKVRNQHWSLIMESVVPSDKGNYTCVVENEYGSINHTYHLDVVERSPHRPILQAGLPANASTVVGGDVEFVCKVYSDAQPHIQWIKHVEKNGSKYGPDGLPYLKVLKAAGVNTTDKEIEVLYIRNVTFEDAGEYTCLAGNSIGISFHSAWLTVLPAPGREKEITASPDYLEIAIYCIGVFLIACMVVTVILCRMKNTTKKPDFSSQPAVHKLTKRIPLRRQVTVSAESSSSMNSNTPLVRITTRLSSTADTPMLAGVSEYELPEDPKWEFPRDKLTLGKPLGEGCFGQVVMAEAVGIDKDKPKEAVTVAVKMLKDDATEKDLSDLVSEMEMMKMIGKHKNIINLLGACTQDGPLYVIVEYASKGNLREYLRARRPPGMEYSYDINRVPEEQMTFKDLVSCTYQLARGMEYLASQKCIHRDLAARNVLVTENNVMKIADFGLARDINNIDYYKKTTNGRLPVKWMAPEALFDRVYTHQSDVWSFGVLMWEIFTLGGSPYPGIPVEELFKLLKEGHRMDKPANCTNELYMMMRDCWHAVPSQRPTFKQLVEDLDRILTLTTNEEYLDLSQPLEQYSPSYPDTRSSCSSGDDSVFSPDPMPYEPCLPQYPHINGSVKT
T4 sequence (P22455 22-802): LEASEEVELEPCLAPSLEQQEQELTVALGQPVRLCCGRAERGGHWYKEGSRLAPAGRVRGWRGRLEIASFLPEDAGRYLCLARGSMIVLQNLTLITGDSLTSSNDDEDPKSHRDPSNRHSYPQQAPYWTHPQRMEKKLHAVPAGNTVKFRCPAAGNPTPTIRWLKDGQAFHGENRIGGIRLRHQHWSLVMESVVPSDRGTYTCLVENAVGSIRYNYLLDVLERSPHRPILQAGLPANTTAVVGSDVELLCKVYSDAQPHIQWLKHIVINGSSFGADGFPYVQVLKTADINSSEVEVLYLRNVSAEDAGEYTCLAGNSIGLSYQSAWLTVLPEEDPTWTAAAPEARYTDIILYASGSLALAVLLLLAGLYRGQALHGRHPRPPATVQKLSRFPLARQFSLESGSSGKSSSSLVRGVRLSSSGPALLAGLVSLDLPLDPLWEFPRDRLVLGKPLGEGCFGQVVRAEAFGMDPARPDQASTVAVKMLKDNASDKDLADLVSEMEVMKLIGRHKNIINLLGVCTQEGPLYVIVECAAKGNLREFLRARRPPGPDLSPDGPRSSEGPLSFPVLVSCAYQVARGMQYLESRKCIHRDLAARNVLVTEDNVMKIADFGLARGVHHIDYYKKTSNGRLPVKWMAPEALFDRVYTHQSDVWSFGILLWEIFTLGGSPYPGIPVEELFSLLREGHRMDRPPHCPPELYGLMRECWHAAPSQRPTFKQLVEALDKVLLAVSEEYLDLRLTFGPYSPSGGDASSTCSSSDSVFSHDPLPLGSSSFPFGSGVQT

SMILES	IC50 (human FGFR1)	Selectivity FGFR1/3 (FGFR3)	IC50 (FGFR3)	Selectivity FGFR1/2 (FGFR2)	IC50 (FGFR2)	IC50 (human FGFR4)
COc1cc(OC)cc(-c2nc(-c3nc(-c4cn(C)nc4C)cnc3N)cn(C)c2=O)c1 [Hydrochloride salt of 0023]	164 nM	5.52	29.8 nM	5.11	32.1 nM	–
COc1cc(OC)cc(-c2nc(-c3nc(-c4cn(CC5(C#N)CC5)nc4C)cnc3N)cn(C)c2=O)c1 [compound 0043]	53 nM	6.63	7.99 nM	4.17	12.7 nM	–
COc1cc(OC)cc(-c2nc(-c3nc(-c4cnc5c(c4)CC(=O)N5C)cnc3N)cn(C)c2=O)c1 [Hydrochloride salt of 0033]	2280 nM	19.15	119 nM	7.27	314 nM	–
COc1cc(OC)cc(-c2nc(-c3nc(-c4cccnc4)cnc3N)cn(C)c2=O)c1 [Trifluoroacetate salt of 0018]	727 nM	89.67	8.11 nM	48.27	15.1 nM	–
COc1cc(OC)c(Cl)c(-c2nc(-c3nc(-c4ccc(C5CCN(C)CC5)nc4)cnc3N)cn(C)c2=O)c1 [Trifluoroacetate salt of 0060]	3.08 nM	3.26	0.944 nM	5.78	0.533 nM	–
COCCN1CCC(n2cc(-c3cnc(N)c(-c4cn(C)c(=O)c(-c5cc(OC)cc(OC)c5)n4)n3)c(C)n2)CC1 [compound 0035]	29.3 nM	5.81	5.04 nM	5.02	5.83 nM	–
COc1cc(OC)cc(-c2nc(-c3nc(-c4cn(C5CCN(C)CC5)nc4C)cnc3N)cn(C)c2=O)c1 [Trifluoroacetate salt of 0016]	29.2 nM	5.92	4.93 nM	6.94	4.21 nM	8640 nM
COc1cc(OC)cc(-c2nc(-c3nc(-c4cn(C5CCNCC5)nc4C)cnc3N)cn(C)c2=O)c1 [compound 0028]	54 nM	5.12	10.5 nM	7.05	7.66 nM	–
COc1cc(OC)c(F)c(-c2nc(-c3nc(-c4cn(C)nc4C)cnc3N)cn(C)c2=O)c1 [Trifluoroacetate salt of 0029]	2.33 nM	1.52	1.54 nM	4.14	0.56 nM	–
COc1cc(OC)cc(-c2nc(-c3nc(-c4cnn(C)c4)cnc3N)cn(C)c2=O)c1 [compound 0017]	78.7 nM	12.48	6.31 nM	8.95	8.79 nM	–
CCNC(=O)c1ccc(-c2cnc(N)c(-c3cn(C)c(=O)c(-c4cc(OC)cc(OC)c4)n3)n2)cn1 [compound 0038]	> 10000 nM	>978.5	10.2 nM	>68.4	146 nM	–
COc1cc(OC)cc(-c2nc(-c3nc(-c4ccc(C5CCN(C)CC5)nc4)cnc3N)cn(C)c2=O)c1 [Hydrochloride salt of 0036]	13.2 nM	7.28	1.81 nM	5.31	2.48 nM	> 10000 nM
COc1cc(OC)cc(-c2nc(-c3nc(-c4cnn(C5CCN(C)CC5)c4C)cnc3N)cn(C)c2=O)c1 [Trifluoroacetate salt of 0031]	183 nM	6.57	27.8 nM	4.15	44 nM	–

Continued, values first:

IC50 (human FGFR1)	Selectivity FGFR1/3 (FGFR3)	IC50 (FGFR3)	Selectivity FGFR1/2 (FGFR2)	IC50 (FGFR2)	IC50 (human FGFR4)	SMILES
126 nM	11.76	10.8 nM	10.62	11.9 nM	–	COc1cc(OC)cc(-c2nc(-c3nc(-c4cncc(C)c4)cnc3N)cn(C)c2=O)c1 [compound 0056]
269 nM	4.65	57.8 nM	4.79	56.1 nM	–	COc1cc(OC)cc(-c2nc(-c3nc(-c4cn(CCO)nc4C)cnc3N)cn(C)c2=O)c1 [compound 0048]
201 nM	5.85	34.3 nM	3.07	65.5 nM	–	COc1cc(OC)cc(-c2nc(-c3nc(-c4cnn(CCO)c4C)cnc3N)cn(C)c2=O)c1 [compound 0049]
61.6 nM	8.40	7.33 nM	5.47	11.2 nM	–	COc1cc(OC)cc(-c2nc(-c3nc(-c4cn(CC(O)CC(F)(F)F)nc4C)cnc3N)cn(C)c2=O)c1 (single isomer, unassigned) [compound 0062]
70.8 nM	5.78	12.3 nM	4.39	16.1 nM	–	COc1cc(OC)cc(-c2nc(-c3nc(-c4cn(CC(O)CC(F)(F)F)nc4C)cnc3N)cn(C)c2=O)c1 (single isomer, unassigned) [compound 0063]
> 10000 nM	–	49.4 nM	–	3060 nM	–	COc1cc(OC)cc(-c2nc(-c3nc(-c4ccc(C5(C#N)CCC5)nc4)cnc3N)cn(C)c2=O)c1 [compound 0059]
181 nM	11.18	16.2 nM	7.97	22.7 nM	–	COc1cc(OC)cc(-c2nc(-c3nc(-c4cnn(CC(O)CC(F)(F)F)c4C)cnc3N)cn(C)c2=O)c1 (single isomer, unassigned) [compound 0064]
29.3 nM	7.12	4.11 nM	4.48	6.54 nM	–	COc1cc(OC)cc(-c2nc(-c3nc(-c4cnn(CC5(C#N)CC5)c4C)cnc3N)cn(C)c2=O)c1 [compound 0051]
407 nM	9.01	45.2 nM	7.56	53.9 nM	–	COc1cc(OC)cc(-c2nc(-c3nc(-c4cnn(CC(O)CC(F)(F)F)c4C)cnc3N)cn(C)c2=O)c1 (single isomer, unassigned) [compound 0065]
